This passage reports IC50 results from patent US20130196986A1 (priority 2010, published 2013).

One may read the IC50 as the concentration that inhibits the measured activity by half.

The experiment deals with T1, P2X7 receptor (Homo sapiens, UniProt Q99572).
T1 construct: stably expressing the full length P2X7 receptor; expressed in transfected cells
T1 sequence (Q99572 1-595): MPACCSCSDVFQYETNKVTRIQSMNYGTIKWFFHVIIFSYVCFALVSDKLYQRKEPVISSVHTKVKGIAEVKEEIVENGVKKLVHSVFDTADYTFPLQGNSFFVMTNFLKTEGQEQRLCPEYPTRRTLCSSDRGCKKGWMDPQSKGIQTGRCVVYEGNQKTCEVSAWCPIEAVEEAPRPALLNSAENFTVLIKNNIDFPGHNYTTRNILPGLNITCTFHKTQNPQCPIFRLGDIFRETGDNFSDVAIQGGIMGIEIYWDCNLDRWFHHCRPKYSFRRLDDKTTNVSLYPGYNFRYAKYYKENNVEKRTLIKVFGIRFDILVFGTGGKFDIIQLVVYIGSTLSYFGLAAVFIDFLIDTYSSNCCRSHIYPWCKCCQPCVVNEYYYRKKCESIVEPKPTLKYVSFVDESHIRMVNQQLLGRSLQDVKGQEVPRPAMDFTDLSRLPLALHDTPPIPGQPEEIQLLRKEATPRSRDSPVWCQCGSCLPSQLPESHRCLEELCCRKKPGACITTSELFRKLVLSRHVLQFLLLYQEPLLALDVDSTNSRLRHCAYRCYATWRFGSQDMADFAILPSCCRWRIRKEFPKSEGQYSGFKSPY
The experiment can be described thus: Ca++ flux assay (FLIPR) in P2X7-HEK-293 cell line stably expressing the full length P2X7 receptor, Bz-ATP activation. The class given is cell-based. Conditions: P2X7-HEK-293 cells; agonist Bz-ATP; fluorescence as total area over 90 seconds; read-out: P2X7 Ca Flux hu IC50. A digest of the protocol:
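HEK-293 cells stably expressing full-length P2X7 were loaded with Ca++-sensitive dye for 1 h, with compound added during loading. Cells were stimulated with Bz-ATP on FLIPR. Fluorescence was integrated as total area over 90 s, and IC50 was taken as 50% inhibition of the maximal Ca++ response.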
For the compound `COC(=O)c1cccc(CSc2nnc3c(=O)n(-c4cccc(Cl)c4C)ccn23)c1` [Compound 91, methyl 3-((7-(3-chloro-2-methylphenyl)-8-oxo-7,8-dihydro-[1,2,4]triazolo[4,3-a]pyrazin-3-ylthio)methyl)benzoate], the IC50 came out at 3.25 µM. Then `Cc1c(-n2ccn3c(SCc4ccccc4-c4ccccc4)nnc3c2=O)cccc1C(F)(F)F` [Compound 49, 3-(biphenyl-2-ylmethylthio)-7-(2-methyl-3-(trifluoromethyl)phenyl)-[1,2,4]triazolo[4,3-a]pyrazin-8(7H)-one], with 0.0159 µM; and `Cc1ccc(-c2ccccc2CS(=O)(=O)c2nnc3c(=O)n(-c4cccc(C(F)(F)F)c4C)ccn23)cc1` [Compound 154, 7-(2-methyl-3-(trifluoromethyl)phenyl)-3-((4′-methylbiphenyl-2-yl)methylsulfonyl)-[1,2,4]triazolo[4,3-a]pyrazin-8(7H)-one], with 0.0519 µM.

On to `Cc1c(Cl)cccc1-n1ccn2c(SCc3cccc(Br)c3)nnc2c1=O` [Compound 86, 3-(3-bromobenzylthio)-7-(3-chloro-2-methylphenyl)-[1,2,4]triazolo[4,3-a]pyrazin-8(7H)-one], for which the concentration for half-maximal inhibition (IC50) is 0.446 µM. As to `Cc1c(Cl)cccc1-n1ccn2c(SCc3cc(C(F)(F)F)cc(C(F)(F)F)c3)nnc2c1=O` [Compound 88, 3-(3,5-bis(trifluoromethyl)benzylthio)-7-(3-chloro-2-methylphenyl)-[1,2,4]triazolo[4,3-a]pyrazin-8(7H)-one], the concentration for half-maximal inhibition (IC50) came out at 8.37 µM. For `Cc1c(-n2ccn3c(SCc4ccccc4Cl)nnc3c2=O)cccc1C(F)(F)F` [Compound 28, 3-(2-chlorobenzylthio)-7-(2-methyl-3-(trifluoromethyl)phenyl)-[1,2,4]triazolo[4,3-a]pyrazin-8(7H)-one], the IC50 came out at 0.148 µM. Take `Cc1c(-n2ccn3c([S+]([O-])Cc4ccccc4)nnc3c2=O)cccc1C(F)(F)F` (stereo not shown) [Compound 117, 3-(benzylsulfinyl)-7-(2-methyl-3-(trifluoromethyl)phenyl)-[1,2,4]triazolo[4,3-a]pyrazin-8(7H)-one]: the half-maximal inhibitory concentration (IC50) came to 0.0765 µM. Next, `Cc1c(-n2ccn3c(S(=O)(=O)Cc4cscc4Br)nnc3c2=O)cccc1C(F)(F)F` [Compound 147, 3-((4-bromothiophen-3-yl)methylsulfonyl)-7-(2-methyl-3-(trifluoromethyl)phenyl)-[1,2,4]triazolo[4,3-a]pyrazin-8(7H)-one]: 0.0458 µM; `Cc1c(Cl)cccc1-n1ccn2c(SCc3ccccc3C#N)nnc2c1=O` [Compound 87, 2((7-(3-chloro-2-methylphenyl)-8-oxo-7,8-dihydro-[1,2,4]triazolo[4,3-a]pyrazin-3-ylthio)methyl)benzonitrile]: 0.434 µM. On to `Cc1ccc(-c2ccccc2CSc2nnc3c(=O)n(-c4cccc(C(F)(F)F)c4C)ccn23)cc1` [Compound 7, 7-(2-methyl-3-(trifluoromethyl)phenyl)-3-((4′-methylbiphenyl-2-yl)methylthio)-[1,2,4]triazolo[4,3-a]pyrazin-8(7H)-one], for which the IC50 was 0.0667 µM. Next, `Cc1c(Cl)cccc1-n1ccn2c(SCc3ccccc3-c3cccnc3)nnc2c1=O` [Compound 36, 7-(3-chloro-2-methylphenyl)-3-(2-(pyridin-3-yl)benzytthio)-[1,2,4]triazolo[4,3-a]pyrazin-8(7H)-one]: 0.147 µM; `Cc1c(-n2ccn3c(S(=O)(=O)Cc4ccccc4-c4cccs4)nnc3c2=O)cccc1C(F)(F)F` [Compound 143, 7-(2-methyl-3-(trifluoromethyl)phenyl)-3-(2-(thiophen-2-yl)benzylsulfonyl)-[1,2,4]triazolo[4,3-a]pyrazin-8(7H)-one]: 0.0462 µM; `O=c1c2nnc(SCc3cc(Cl)cc(Cl)c3)n2ccn1-c1cccc(C(F)(F)F)c1Cl` [Compound 60, 7-(2-chloro-3-(trifluorornethyl)phenyl)-3-(3,5-dichlorobenzylthio)-[1,2,4]triazolo[4,3-a]pyrazin-8(7H)-one]: 0.0914 µM.

As for `Cc1c(Br)cccc1-n1ccn2c(SCc3cc(Cl)cc(Cl)c3)nnc2c1=O` [Compound 83, 7-(3-brorno-2-methylphenyl)-3-(3,5-dichlorobenzylthio)-[1,2,4]triazolo[4,3-a]pyrazin-8(7H)-one], the IC50 was 0.855 µM. For `Cc1c(-n2ccn3c(S(=O)(=O)Cc4ccccc4I)nnc3c2=O)cccc1C(F)(F)F` [Compound 133, 3-(2-iodobenzylsulfonyl)-7-(2-methyl-3-(trifluoromethyl)phenyl)-[1,2,4]triazolo[4,3-a]pyrazin-8(7H)-one], the IC50 is 0.0214 µM. Next, `O=c1c2nnc(SC3c4ccccc4-c4ccccc43)n2ccn1-c1cccc(C(F)(F)F)c1Cl` [Compound 26, 3-(9H-fluoren-9-ylthio)-7-(2-chloro-3-(trifluoromethyl)phenyl)-[1,2,4]triazolo[4,3-a]pyrazin-8(7H)-one]: 0.047 µM.

`Cc1c(Cl)cccc1-n1ccn2c(NCCc3ccccc3)nnc2c1=O` [Compound 168, 7-(3-chloro-2-methylphenyl)-3-(phenethylamino)-[1,2,4]triazolo[4,3-a]pyrazin-8(7H)-one]: the half-inhibitory concentration (IC50) was 3.15 µM. As to `COC(=O)c1ccccc1CSc1nnc2c(=O)n(-c3cccc(Cl)c3C)ccn12` [Compound 90, methyl 2-((7-(3-chloro-2-methylphenyl)-8-oxo-7,8-dihydro-[1,2,4]triazolo[4,3-a]pyrazin-3-ylthio)methyl)benzoate], the IC50 amounted to 0.643 µM. As to `[2H]c1c([2H])c([2H])c(CS(=O)(=O)c2nnc3c(=O)n(-c4cccc(C(F)(F)F)c4C)ccn23)c([2H])c1[2H]` [Compound 135, deuterated-7-[2-methyl-3-(trifluoromethyl)phenyl]-3-[(phenyl-(d5)-methyl)sulfonyl]-1,2,4-triazolo[4,3-a]pyrazin-8(7H)-one], the IC50 came out at 0.0233 µM. Then `Cc1c(Cl)cccc1-n1ccn2c(S(=O)(=O)Cc3ccccc3)nnc2c1=O` [Compound 139, 3-(benzylsulfonyl)-7-(3-chloro-2-methylphenyl)-[1,2,4]triazolo[4,3-a]pyrazin-8(7H)-one], with 0.0317 µM.

As for `Cc1c(Cl)cccc1-n1ccn2c(SCc3ccccc3CN3CCOCC3)nnc2c1=O` [Compound 39, 7-(3-chloro-2-methylphenyl)-3-(2-(rnorpholinornethyl)benzylthio)-[1,2,4]triazolo[4,3-a]pyrazin-8(7H)-one], the IC50 was 0.636 µM. Next, `Cc1c(Cl)cccc1-n1ccn2c(SCc3cc(F)cc(F)c3)nnc2c1=O` [Compound 114, 7-(3-chloro-2-methylphenyl)-3-(3,5-difluorobenzylthio)-[1,2,4]triazolo[4,3-a]pyrazin-8(7H)-one]: 0.697 µM; `Cc1c(-n2ccn3c(S(=O)(=O)Cc4cccc(F)c4Cl)nnc3c2=O)cccc1C(F)(F)F` [Compound 124, 3-(2-chloro-3-fluorobenzylsulfonyl)-7-(2-methyl-3-(trifluoromethyl)phenyl)-[1,2,4]triazolo[4,3-a]pyrazin-8(7H)-one]: 0.0146 µM. On to `Cc1c(-n2ccn3c(S(=O)(=O)Cc4ccccc4-c4ccccc4)nnc3c2=O)cccc1C(F)(F)F` [Compound 149], for which the IC50 was found to be 0.048 µM. Regarding `Cc1c(Cl)cccc1-n1ccn2c(SCc3ccccc3N3CCOCC3)nnc2c1=O` [Compound 32, 7-(3-chloro-2-methylphenyl)-3-(2-morpholinobenzylthio)-[1,2,4]triazolo[4,3-a]pyrazin-8(7H)-one], the IC50 came to 0.553 µM.
